According to patent US20230172925A1, “SKIN-CARE COMPOSITIONS AND USES THEREOF” (AHAVA - DEAD SEA LABORATORIES LTD., priority 2019, published 2023):

What was measured:
Type in all cases: cell-based
[1] = test system: MatTek EFT-400 full thickness tissues; test: DNA microarray gene expression in skin equivalents, complex vs individual ingredients (Example 5); design: key to Genes up and downregulation in pathway: + = up-regulated; − = down-regulated; *non-significant down-regulation, thus, regulation is considered as non-affected (NA); details: for Up-Regulated Genes (number): cut off of two fold change of adjusted Fold Change, 48 hours
Description: MatTek EFT-400 full thickness tissues were used as the model for this study. Upon arrival, the full thickness tissues were placed into 6 wells plates with 2 ml of culture media and incubated overnight at 37±2° C. and 5±1% CO2. After this overnight incubation the culture media was replaced with 5 ml of fresh media and the tissues were treated topically with the test materials prepared in distilled water as follows:
After the application of the test materials the tissues were incubated at 37±2° C. and […] for 48 hours.
At the end of the treatment period, the tissues were rinsed and transferred to a 2 ml centrifuge tube containing 700 μl of lysis buffer and homogenized. After centrifuging at 14,000×g for 10 minutes at 4° C. the supernatant from each tube was transferred to a new 1.5 ml tube and mixed with and equal volume of 64% ethanol. After mixing the solutions was transferred to glass fiber filter cartridges and the cartridges were loaded into a 1.5 ml collection tube centrifuged for 1 minute at 14,000 RPM in a Napco 2002 Microcentrifuge with a DA-6T fixed angle rotor. The flow through was discarded and any remaining mixture was loaded into the filter cartridge and the centrifugation process was repeated until all of the mixture had been processed. The filter was then washed to remove any residual cellular debris from the RNA bound to the glass fibers by subsequently applying 700 μl of wash solution 1 (1 time) and 500 μl of wash solution 2 (2 times) to the filter cartridge and centrifuging at 14,000 RPM for 1 minute to pass each wash through the cartridge. After each wash, the flow through was discarded. After the final wash one final spin was performed without wash solution to remove any residual wash solution in the filter cartridge. The RNA bound to the glass fibers within the cartridge was then eluted by applying 40 μl of TE buffer (10 mM Tris-HCl, 1 mM EDTA, preheated to 70-80° C.) to the cartridge and centrifuging the cartridge in a new collection tube at 14,000 RPM for one minute. The elution process was then repeated a second time using 20 μl of TE buffer.
First Strand cDNA Synthesis: To start the first strand synthesis, 10 μl of total RNA for each sample was added to a 600 μl PCR tube and the total volume of liquid in the tube will be adjusted to 11 μl with DEPC H2O. Next, 1 μl of T7 Oligo(dT) primer was added and the tube was incubated in a water bath at 70±2° C. for 10 minutes to denature the RNA and then placed on ice to allow the primers to anneal to the poly A ends of the mRNA. After cooling 2 μl of 10× first strand buffer, 1 μl of RNAse inhibitor and 4 μl of dNTP mix were added to each tube, and the tube was incubated at 42° C. in a hybridization oven (Labnet Problot). As soon as the tube was heated, 1 μl of Reverse Transcriptase was added and the tubes were returned to 42±2° C. for 2 hours. At the end of the two hours the tubes were briefly centrifuged to collect all of the fluid at the bottom of the tube and then placed on ice.
Two tubes were prepared for the labeling process, one for Cy3 labeling (green) and one for Cy5 labeling (red). To the Cy3 tube 2 μg of aRNA prepared from the untreated/control sample (the actual color assignment for each sample is not important, but for consistency Cy3 is normally used for the untreated sample) and enough DEPC H2O was added to bring the total volume up to 4 μl. To the Cy5 tube 2 μg of aRNA prepared from the sample treated with the test material and enough DEPC H2O was added to bring the total volume up to 4 μl. To both tubes 5 μl of ASAP labeling buffer was added along with 1 μl of the specific dye for the tube (Cy3 or Cy5). The tubes were incubated for 15 minutes at 85±2° C. At the end of the 15 minutes the tubes were placed on ice to cool them and then add 2.5 μl of ASAP stop solution was added to each tube.

[2] = test system: human skin explants (epidermis); test: Human skin organ culture with UVB stressor, viability by MTT assay; details: SDS 10% applied only once, not irradiated, 24 hours of incubation
Description: (§1) Topical exposure till 48 hours in total (24 hr recovery following topical application+24 hr after exposure to UVB irradiation) with UVB radiation as stressor on human skin model
(§2) The following general procedure was used in the study:
(§3) Day 1: Topical application of 3 μl of each sample solution on the epidermis of each skin explant. Incubate for 24 hours. SDS 10% was applied only once, and was not farther irradiated with UVB.
(§4) Day 2: Skin explants were washed once with PBS and irradiated with UVB lamp at 200 mJ/cm2. After radiation it was incubated for 30 min and then topically apply each treatment (sample solution) again. Control was not irradiated under UVB light. UVB radiated control was without any treatment except radiation.
(§5) Day 3: Viability and Caspase3 activity were measured for the epidermis layer. The medium was collected for cytokines test.
FIG. 2 illustrates a flow diagram of topical exposure/treatment till 48 hours, 24 hr recovery following topical application +24 hr after exposure to UVB irradiation) with UVB radiation as stressor on human skin model experiment. In the Experiment the SDS irritation control sample was a skin explant that was topical applied with 3 μl SDS 10% solution at day 1 only.
The viability of the various skin explants was measured by the 5-dimethylthiazol-2-yl]-2,5-diphenyl tetrazolium bromide (MTT) assay.

TNFα [3] = test: Human skin organ culture with UVB stressor, TNFα secretion in the medium; details: SDS 10%, one treatment, not irradiated
Description: as §1, §2, §3, §4, §5
FIG. 4 illustrates the TNFα secretion results in the medium as observed with 2 to 4 repetition of the tests. In FIG. 4 the TNFα secretion of the irradiated sample “UVB” was selected as 100% and it equals 53±30 pg/ml.

IL-1α [4] = test: Human skin organ culture with UVB stressor, IL-1α secretion in the medium; details: SDS 10% applied once, incubation of 24 hours
Description: as §1, §2, §3, §4, §5
FIG. 5 illustrates the IL-1α secretion results in the medium as observed with 3 to 4 repetition of the tests. In FIG. 5 the IL-1α secretion of the irradiated sample “UVB” was selected as 100% and it equals 8.1±1.0 pg/ml.

[5] = test system: human skin explants (epidermis); test: Human skin organ culture without UVB stressor, topical exposure till 96 hours, viability by MTT assay; details: no UVB; SDS 10% applied only once; after 96 hours
Description: (§6) Topical Exposure Till 96 Hours without External UVB Radiation as Stressor on Human Skin Model
(§7) Day 1: Topical application of 3 μl of each solution on the epidermis of each skin explant. Incubate for 24 hours. (SDS Irritation control: topical application of 3 ul SDS 10% was applied on the skin model at day 1 only. The rest of the days samples were untouched).
(§8) Day 2: Topical application of 3 μl of each solution on the epidermis of each skin explant. Incubate for 24 hours in fresh medium (medium was not collected). (UVB control: after 24 hours incubation with 3 μl H2O skin was irradiated with 200 mJ/cm2 UVB. The rest of the experiment days sample were topically applied with H2O, as control).
(§9) Day 3: Topical application of 3 μl of each solution on the epidermis of each skin explant. Incubate for 24 hours in fresh medium (medium was collected)—48 hours of total topical incubation.
(§10) Day 4: Topical application of 3 μl of each solution on the epidermis of each skin explant. Incubate for 24 hours in fresh medium (medium was collected)—72 hours of total topical incubation.
Day 5: Topical application of 3 μl of each solution on the epidermis of each skin explant. Incubate for 24 hours in fresh medium (medium was collected)—96 hours of total topical incubation. MTT assay was performed. […]
The viability of the various skin explants was measured by the MTT assay.

TNFα [6] = test: Human skin organ culture without UVB stressor, TNFα secretion; details: no UVB; SDS 10% applied once; after incubation of 48 hours
Description: as §6, §7, §8, §9, §10
(§11) Day 5: Topical application of 3 μl of each solution on the epidermis of each skin explant. Incubate for 24 hours in fresh medium (medium was collected)—96 hours of total topical incubation. MTT assay was performed.
FIG. 8 illustrates the TNFα secretion tested results. In FIG. 8 the TNFα secretion of the H2O sample was used as a control (0.35±0.05 pg/ml) for each time point.

IL-1α [7] = test: Human skin organ culture without UVB stressor, IL-1α secretion; details: no UVB, SDS 10% applied once
Description: as §6, §7, §8, §9, §10, §11
FIG. 9A illustrates the IL-1α secretion results in the medium. In FIG. 9A the IL-1α secretion of the H2O sample was used as a control (9.0±0.7 pg/ml […]) for each time point. FIG. 9B is a magnification of FIG. 9A.

[8] = KEGG_NUCLEOTIDE_EXCISION_REPAIR
[9] = KEGG_SIGNALING_PATHWAYS_REGULATING_PLURIPOTENCY_OF_STEM_CELLS
[10] = WIKI_ASSEMBLY_OF_COLLAGEN_FIBRILS_AND_OTHER_MULTIMERIC_STRUCTURES

## NC(=O)c1cccnc1 [Niacinamide]
[1]; KEGG_APOPTOSIS
  z-score: −0.6704
[1]; KEGG_BASE_EXCISION_REPAIR
  z-score: 0.1343
[1]; KEGG_CELL_CYCLE
  Genes up and downregulation in pathway: −
  z-score: −1.1781
[1]; KEGG_CIRCADIAN_RHYTHM_MAMMAL
  z-score: 0.1529
[1]; KEGG_FATTY_ACID_BIOSYNTHESIS
  z-score: −1.579
[1]; KEGG_FATTY_ACID_DEGRADATION
  z-score: −0.3119
[1]; KEGG_GLYCOLYSIS_GLUCONEOGENESIS
  z-score: 0.7976
[1]; KEGG_NF_KAPPA_B_SIGNALING_PATHWAY
  z-score: −0.7978
[1]; [8]
  Genes up and downregulation in pathway: −
  z-score: −0.2743
[1]; KEGG_OXIDATIVE_PHOSPHORYLATION
  z-score: 0.1959
[1]; KEGG_P53_SIGNALING_PATHWAY
  Genes up and downregulation in pathway: −
  z-score: −0.04133
[1]; KEGG_PROTEASOME
  z-score: −1.4338
[1]; KEGG_RETINOL_METABOLISM
  z-score: 0.7797
[1]; [9]
  Genes up and downregulation in pathway: −
  z-score: −1.5828
[1]; KEGG_SPHINGOLIPID_METABOLISM
  z-score: −1.4272
[1]; KEGG_TH1_AND_TH2_CELL_DIFFERENTIATION
  z-score: −0.6106
[1]; KEGG_TIGHT_JUNCTION
  z-score: 1.7592
[1]; KEGG_TNF_SIGNALING_PATHWAY
  z-score: −1.6603
[1]; KEGG_T_CELL_RECEPTOR_SIGNALING_PATHWAY
  z-score: −0.515
[1]; KEGG_WNT_SIGNALING_PATHWAY
  z-score: −0.8093
[1]; WIKI_ACTIVATION_OF_MATRIX_METALLOPROTEINASES
  z-score: 1.5758
[1]; [10]
  Genes up and downregulation in pathway: −
  z-score: −0.4818
[1]; WIKI_COLLAGEN_BIOSYNTHESIS_AND_MODIFYING_ENZYMES
  z-score: 1.0367
[1]; WIKI_COLLAGEN_DEGRADATION
  z-score: 0.7489
[1]; WIKI_DEGRADATION_OF_THE_EXTRACELLULAR_MATRIX
  z-score: 0.02517
[1]; WIKI_ELASTIC_FIBRE_FORMATION
  Genes up and downregulation in pathway: −
  z-score: −1.0086
[1]; WIKI_ELECTRON_TRANSPORT_CHAIN_IN_MITOCHONDRIA
  z-score: −0.6757
[1]; WIKI_EXTRACELLULAR_MATRIX_ORGANIZATION
  z-score: 0.2738
[1]; WIKI_KERATINIZATION
  Genes up and downregulation in pathway: +
  regulation of WIKI_KERATINIZATION pathway (Z-Score heatmap, in words): up-regulated
  z-score: 7.5403
[1]; WIKI_NRF2_PATHWAY
  z-score: 2.1898
[1]; WIKI_RESPIRATORY_ELECTRON_TRANSPORT_ATP_SYNTHESIS
  z-score: −0.7571
[1]; WIKI_SPHINGOLIPID_METABOLISM
  z-score: −0.1492
[1]; 19254 genes evaluated
  Up-Regulated Genes (number): 133
[1]; second column of Table 6
  Up-Regulated Genes (number): 70

## CCCCCCCCCCCCOS(=O)(=O)[O-].[Na+] [SDS]
[2]
  viability (MTT) of epidermis: caused epidermis death
TNFα [3]
  TNFα secretion: significant reduction
IL-1α [4]
  IL-1α secretion: dramatically increased
[5]
  epidermis viability (MTT), % of the control value: 15%
TNFα [6]
  TNFα secretion: below the detection lever
IL-1α [7]; after 48 hours
  IL-1α secretion level, times of the control value: 6.5 times of the control value
IL-1α [7]; after 72 hours and 96 hours
  IL-1α secretion level, times of the control value: 10.6 times of the control value
